Assay results reported in US20040265940A1, “Amperometer sensor” (priority 2001, published 2004).
Like-named read-outs stand apart in the source and are kept apart here.

Key:
[1] = cited from earlier work; for Solubility: values obtained from SRC PhysProp Database
[2] = Potential of oxidation peak at a glassy carbon electrode; assay type: physicochemical; conditions: pH 6.95 bis-tris buffer, Ag/AgCl/sat. KCl reference electrode
[3] = versus SCE; cited from earlier work

Row | Structure (SMILES) | Eox (potential of oxidation peak) [2] [mV] | solubility in water ([1]; in water at 25° C.) | Solubility [1] | oxidation potential [3] | solubility in water ([1]; in water at 18° C.)
1 | O=C1C=CC(=O)C=C1 [1,4-benzoquinone, reference compound] | 278 | – | 1.11 E+04 (SRC) mg/L | approximately +400 mV | 11,000 mgL^−1
2 | COC1=CC(=O)C=C(OC)C1=O [2,6-dimethoxy-1,4-benzoquinone] | 166 | 70,600 mgL^−1 | 7.06 E+04 (SRC) mg/L | – | –
3 | CC1=C(C)C(=O)C(C)=C(C)C1=O [Tetramethyl-1,4-benzoquinone] | −37 | 443 mgL^−1 | 4.43 E+02 (SRC) mg/L | – | –

Second part, led by results:

Row | Eox (potential of oxidation peak) [2] [mV] | Structure (SMILES) | solubility in water ([1]; in water at 25° C.) | Solubility [1] | oxidation potential [3] | solubility in water ([1]; in water at 18° C.)
4 | 137 | CC1=CC(=O)C=C(C)C1=O | 7888 mgL^−1 | 7.88 E+03 (SRC) mg/L | – | –
5 | 156 | COC1=C(OC)C(=O)C(C)=CC1=O [2,3-dimethoxy-5-methyl-1,4-benzoquinone] | 11,000 mgL^−1 | 1.11 E+04 (SRC) mg/L | – | –
6 | 158 | COC1=CC(=O)C=C(CO)C1=O [2-hydroxymethyl-6-methoxy-1,4-benzoquinone] | – | – | – | –
7 | 229 | O=C1C=CC(=O)C(c2ccccc2)=C1 [Phenyl-1,4-benzoquinone] | 1135 mgL^−1 | 1.14 E+03 (SRC) mg/L | – | –
